Reference: US6913760B2, “Drug delivery composition” (New England Medical Hospitals, Inc., priority 2001, dated 2005)
Values joined by “and” are separate entries in the source; they are usually repeats but may differ in a detail not shown here. Equal entries are not always repeated. Marks after values point to notes of the source that are not given here.

Columns and labels:
rats [1] = test: Paw withdrawal test after intrathecal implantation of PLGA rods; assay type: in vivo; conditions: for % MPE, paw withdrawal test, Average: average of 6 rats
rats [2] = test: Tail flick test after intrathecal implantation of PLGA rods; assay type: in vivo; conditions: for % MPE, tail flick test, Average: average of 6 rats
[3] = Drug release studies of PLGA 85:15 rods (Example 2); assay type: physicochemical
rats [4] = test: Anesthesia after intrathecal polymeric implants, all sites tested (Example 2); assay type: in vivo; conditions: intrathecal rods
[5] = trapezoidal method, individual rats
[6] = trapezoidal method, mean of 6 rats

## C[C@@H](NC(=O)[C@@H](N)Cc1ccc(O)cc1)C(=O)NCC(=O)N[C@@H](Cc1ccccc1)C(=O)NNC(=O)[C@H](Cc1ccccc1)NC(=O)CNC(=O)[C@@H](C)NC(=O)[C@@H](N)Cc1ccc(O)cc1 [Biphalin]
Rats [1]; 2h, L
  % MPE, paw withdrawal test, Average: 100 % MPE
Rats [1]; 2h, R
  % MPE, paw withdrawal test, Average: 100 % MPE
Rats [1]; 2h, left (L) hind paw, individual rats
  % MPE, paw withdrawal test: 100 % MPE
Rats [1]; 2h, right (R) hind paw, individual rats
  % MPE, paw withdrawal test: 100 % MPE
Rats [1]; 4h, L
  % MPE, paw withdrawal test, Average: 100 % MPE
Rats [1]; 4h, L, individual rats
  % MPE, paw withdrawal test: 100 % MPE
Rats [1]; 4h, R
  % MPE, paw withdrawal test, Average: 100 % MPE
Rats [1]; 4h, R, individual rats
  % MPE, paw withdrawal test: 100 % MPE
Rats [1]; D1, L
  % MPE, paw withdrawal test, Average: 14.47 % MPE
Rats [1]; D1, L, individual rats
  % MPE, paw withdrawal test: 30.27 % MPE and 7.30 % MPE and −1.89 % MPE and 10.92 % MPE and 18.44 % MPE and 21.78 % MPE
Rats [1]; D1, R
  % MPE, paw withdrawal test, Average: 16.56 % MPE
Rats [1]; D1, R, individual rats
  % MPE, paw withdrawal test: 38.69 % MPE and 10.29 % MPE and −2.32 % MPE and 10.84 % MPE and 16.61 % MPE and 25.27 % MPE
Rats [1]; D2, L
  % MPE, paw withdrawal test, Average: 8.34 % MPE
Rats [1]; D2, L, individual rats
  % MPE, paw withdrawal test: 6.46 % MPE and 1.46 % MPE and −5.68 % MPE and 12.97 % MPE and 20.92 % MPE and 13.93 % MPE
Rats [1]; D2, R
  % MPE, paw withdrawal test, Average: 6.03 % MPE
Rats [1]; D2, R, individual rats
  % MPE, paw withdrawal test: 4.92 % MPE and 0.37 % MPE and −6.20 % MPE and 9.44 % MPE and 16.61 % MPE and 11.03 % MPE
Rats [1]; D3, L
  % MPE, paw withdrawal test, Average: 7.52 % MPE
Rats [1]; D3, L, individual rats
  % MPE, paw withdrawal test: −2.04 % MPE and 10.58 % MPE and 12.12 % MPE and 17.06 % MPE and 12.06 % MPE and −4.64 % MPE
Rats [1]; D3, R
  % MPE, paw withdrawal test, Average: 8.40 % MPE
Rats [1]; D3, R, individual rats
  % MPE, paw withdrawal test: 7.54 % MPE and 9.92 % MPE and 9.30 % MPE and 13.64 % MPE and 11.07 % MPE and −1.07 % MPE
Rats [1]; D4, L
  % MPE, paw withdrawal test, Average: 1.86 % MPE
Rats [1]; D4, L, individual rats
  % MPE, paw withdrawal test: 2.27 % MPE and 11.94 % MPE and 2.84 % MPE and 2.14 % MPE and 0.34 % MPE and −8.39 % MPE
Rats [1]; D4, R
  % MPE, paw withdrawal test, Average: 1.02 % MPE
Rats [1]; D4, R, individual rats
  % MPE, paw withdrawal test: −0.78 % MPE and 9.44 % MPE and 2.21 % MPE and −2.14 % MPE and 3.28 % MPE and −5.88 % MPE
Rats [1]; D5, L
  % MPE, paw withdrawal test, Average: 3.36 % MPE
Rats [1]; D5, L, individual rats
  % MPE, paw withdrawal test: 18.18 % MPE and 15.02 % MPE and 2.13 % MPE and −5 % MPE and 4.42 % MPE and −14.60 % MPE
Rats [1]; D5, R
  % MPE, paw withdrawal test, Average: 4.72 % MPE
Rats [1]; D5, R, individual rats
  % MPE, paw withdrawal test: 21.32 % MPE and 17.48 % MPE and 0.37 % MPE and −2.49 % MPE and 8.52 % MPE and −16.91 % MPE
Rats [1]; D6, L
  % MPE, paw withdrawal test, Average: 0.45 % MPE
Rats [1]; D6, L, individual rats
  % MPE, paw withdrawal test: 14.39 % MPE and 2.73 % MPE and −0.35 % MPE and −5.71 % MPE and −0.68 % MPE and −7.66 % MPE
Rats [1]; D6, R
  % MPE, paw withdrawal test, Average: 0.00 % MPE
Rats [1]; D6, R, individual rats
  % MPE, paw withdrawal test: 15.89 % MPE and 2.45 % MPE and −3.32 % MPE and −5.34 % MPE and 0.98 % MPE and −10.6 % MPE
Rats [1]; [5]
  Area under the curve (AUC), paw withdrawal test (left side): 41.94 and 82.35 and 118.40 and 104.74 and 73.61 and 86.69
  Area under the curve (AUC), paw withdrawal test (right side): 41.65 and 79.45 and 111.20 and 93.88 and 75.91 and 110.34
Rats [1]; [6]
  Area under the curve (AUC), paw withdrawal test (left side), Mean: 84.62 *
  Area under the curve (AUC), paw withdrawal test (right side), Mean: 85.40 *
Rats [2]; 2h
  % MPE, tail flick test, Average: 86.67 % MPE
Rats [2]; 2h after intrathecal implantation of PLGA rod, individual rats
  % MPE, tail flick test: 80 % MPE and 96.46 % MPE and 86.99 % MPE and 84.66 % MPE and 76.49 % MPE and 95.43 % MPE
Rats [2]; 4h
  % MPE, tail flick test, Average: 91.63 % MPE
Rats [2]; 4h, individual rats
  % MPE, tail flick test: 85.6 % MPE and 83.65 % MPE and 91.6 % MPE and 100 % MPE (2×) and 88.92 % MPE
Rats [2]; % MPE versus time in days, trapezoidal method, individual rats
  Area under the curve (AUC), tail flick test: 280.84 and 263.66 and 251.97 and 276.26 and 343.10 and 236.51
Rats [2]; % MPE versus time in days, trapezoidal method, mean of 6 rats
  Area under the curve (AUC), tail flick test, Mean: 275.39 *
Rats [2]; D1
  % MPE, tail flick test, Average: 82.2 % MPE
Rats [2]; D1, individual rats
  % MPE, tail flick test: 84.8 % MPE and 71.9346 % MPE and 75.88 % MPE and 100 % MPE and 72.97 % MPE and 87.63 % MPE
Rats [2]; D2
  % MPE, tail flick test, Average: 73.13 % MPE
Rats [2]; D2, individual rats
  % MPE, tail flick test: 73.6 % MPE and 73.297 % MPE and 69.9187 % MPE and 90.48 % MPE and 55.14 % MPE and 76.34 % MPE
Rats [2]; D3
  % MPE, tail flick test, Average: 46.93 % MPE
Rats [2]; D3, individual rats
  % MPE, tail flick test: 32.53 % MPE and 35.15 % MPE and 36.59 % MPE and 73.54 % MPE and 50.27 % MPE and 53.49 % MPE
Rats [2]; D4
  % MPE, tail flick test, Average: 24 % MPE
Rats [2]; D4, individual rats
  % MPE, tail flick test: 22.67 % MPE and 20.16 % MPE and 31.17 % MPE and 33.33 % MPE and 21.08 % MPE and 15.5914 % MPE
Rats [2]; D5
  % MPE, tail flick test, Average: 9.086 % MPE
Rats [2]; D5, individual rats
  % MPE, tail flick test: 9.067 % MPE and 12.26 % MPE and 21.14 % MPE and 3.175 % MPE and 1.081 % MPE and 7.796 % MPE
Rats [2]; D6
  % MPE, tail flick test, Average: 2.009 % MPE
Rats [2]; D6, individual rats
  % MPE, tail flick test: 10.4 % MPE and 5.177 % MPE and 4.065 % MPE and 2.381 % MPE and −4.324 ^ % MPE and −5.645 ^ % MPE
[3]
  release order: two phases
Rats [4]
  duration of anesthesia/analgesia: about 3 days
